From paper PMC12324462 (bioRxiv, 2025)

Molecular target: CDK9 (Homo sapiens, UniProt P50750)
Experiment: in vitro kinase assay
Format: biochemical

Chain of CDK9 (P50750 whole entry): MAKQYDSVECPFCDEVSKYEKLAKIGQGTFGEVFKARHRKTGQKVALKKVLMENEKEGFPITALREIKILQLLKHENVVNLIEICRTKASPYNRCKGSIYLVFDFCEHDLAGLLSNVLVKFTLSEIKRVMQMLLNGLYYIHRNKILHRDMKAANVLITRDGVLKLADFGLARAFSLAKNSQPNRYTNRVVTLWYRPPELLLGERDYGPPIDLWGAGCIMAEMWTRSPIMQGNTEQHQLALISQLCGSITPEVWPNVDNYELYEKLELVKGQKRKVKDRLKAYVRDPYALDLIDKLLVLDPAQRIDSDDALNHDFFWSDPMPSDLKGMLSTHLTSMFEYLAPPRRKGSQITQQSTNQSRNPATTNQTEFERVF

SMILES: Cc1cc(O)c(-c2ccc([C@@H](C)CN(C)C)cc2)c2c1[nH]c(=O)c1sccc12 [OTS964]
- IC50: 0.65 µM
